Measurements: patent US11420944B2, “Voltage-dependent t-type calcium channel blocker” (Nippon Chemiphar Co., Ltd., priority 2016, dated 2022)
Like-named read-outs stand apart in the source and are kept apart here.

How the values were obtained:
human Cav3.2 channels [1] = target: T1, human Cav3.2 channels (Homo sapiens, UniProt O95180); assay: Intracellular calcium concentration measurement (Fluo-4 AM) in stable cells expressing human Cav3.2 channels, buffer A / buffer B; format: cell-based
T1 construct: expressed in transfected cells; host or cells: HEK293 cells (ATCC No. CRL-1573), plasmid pcDNA3.1(+)
T1 sequence (O95180 whole entry): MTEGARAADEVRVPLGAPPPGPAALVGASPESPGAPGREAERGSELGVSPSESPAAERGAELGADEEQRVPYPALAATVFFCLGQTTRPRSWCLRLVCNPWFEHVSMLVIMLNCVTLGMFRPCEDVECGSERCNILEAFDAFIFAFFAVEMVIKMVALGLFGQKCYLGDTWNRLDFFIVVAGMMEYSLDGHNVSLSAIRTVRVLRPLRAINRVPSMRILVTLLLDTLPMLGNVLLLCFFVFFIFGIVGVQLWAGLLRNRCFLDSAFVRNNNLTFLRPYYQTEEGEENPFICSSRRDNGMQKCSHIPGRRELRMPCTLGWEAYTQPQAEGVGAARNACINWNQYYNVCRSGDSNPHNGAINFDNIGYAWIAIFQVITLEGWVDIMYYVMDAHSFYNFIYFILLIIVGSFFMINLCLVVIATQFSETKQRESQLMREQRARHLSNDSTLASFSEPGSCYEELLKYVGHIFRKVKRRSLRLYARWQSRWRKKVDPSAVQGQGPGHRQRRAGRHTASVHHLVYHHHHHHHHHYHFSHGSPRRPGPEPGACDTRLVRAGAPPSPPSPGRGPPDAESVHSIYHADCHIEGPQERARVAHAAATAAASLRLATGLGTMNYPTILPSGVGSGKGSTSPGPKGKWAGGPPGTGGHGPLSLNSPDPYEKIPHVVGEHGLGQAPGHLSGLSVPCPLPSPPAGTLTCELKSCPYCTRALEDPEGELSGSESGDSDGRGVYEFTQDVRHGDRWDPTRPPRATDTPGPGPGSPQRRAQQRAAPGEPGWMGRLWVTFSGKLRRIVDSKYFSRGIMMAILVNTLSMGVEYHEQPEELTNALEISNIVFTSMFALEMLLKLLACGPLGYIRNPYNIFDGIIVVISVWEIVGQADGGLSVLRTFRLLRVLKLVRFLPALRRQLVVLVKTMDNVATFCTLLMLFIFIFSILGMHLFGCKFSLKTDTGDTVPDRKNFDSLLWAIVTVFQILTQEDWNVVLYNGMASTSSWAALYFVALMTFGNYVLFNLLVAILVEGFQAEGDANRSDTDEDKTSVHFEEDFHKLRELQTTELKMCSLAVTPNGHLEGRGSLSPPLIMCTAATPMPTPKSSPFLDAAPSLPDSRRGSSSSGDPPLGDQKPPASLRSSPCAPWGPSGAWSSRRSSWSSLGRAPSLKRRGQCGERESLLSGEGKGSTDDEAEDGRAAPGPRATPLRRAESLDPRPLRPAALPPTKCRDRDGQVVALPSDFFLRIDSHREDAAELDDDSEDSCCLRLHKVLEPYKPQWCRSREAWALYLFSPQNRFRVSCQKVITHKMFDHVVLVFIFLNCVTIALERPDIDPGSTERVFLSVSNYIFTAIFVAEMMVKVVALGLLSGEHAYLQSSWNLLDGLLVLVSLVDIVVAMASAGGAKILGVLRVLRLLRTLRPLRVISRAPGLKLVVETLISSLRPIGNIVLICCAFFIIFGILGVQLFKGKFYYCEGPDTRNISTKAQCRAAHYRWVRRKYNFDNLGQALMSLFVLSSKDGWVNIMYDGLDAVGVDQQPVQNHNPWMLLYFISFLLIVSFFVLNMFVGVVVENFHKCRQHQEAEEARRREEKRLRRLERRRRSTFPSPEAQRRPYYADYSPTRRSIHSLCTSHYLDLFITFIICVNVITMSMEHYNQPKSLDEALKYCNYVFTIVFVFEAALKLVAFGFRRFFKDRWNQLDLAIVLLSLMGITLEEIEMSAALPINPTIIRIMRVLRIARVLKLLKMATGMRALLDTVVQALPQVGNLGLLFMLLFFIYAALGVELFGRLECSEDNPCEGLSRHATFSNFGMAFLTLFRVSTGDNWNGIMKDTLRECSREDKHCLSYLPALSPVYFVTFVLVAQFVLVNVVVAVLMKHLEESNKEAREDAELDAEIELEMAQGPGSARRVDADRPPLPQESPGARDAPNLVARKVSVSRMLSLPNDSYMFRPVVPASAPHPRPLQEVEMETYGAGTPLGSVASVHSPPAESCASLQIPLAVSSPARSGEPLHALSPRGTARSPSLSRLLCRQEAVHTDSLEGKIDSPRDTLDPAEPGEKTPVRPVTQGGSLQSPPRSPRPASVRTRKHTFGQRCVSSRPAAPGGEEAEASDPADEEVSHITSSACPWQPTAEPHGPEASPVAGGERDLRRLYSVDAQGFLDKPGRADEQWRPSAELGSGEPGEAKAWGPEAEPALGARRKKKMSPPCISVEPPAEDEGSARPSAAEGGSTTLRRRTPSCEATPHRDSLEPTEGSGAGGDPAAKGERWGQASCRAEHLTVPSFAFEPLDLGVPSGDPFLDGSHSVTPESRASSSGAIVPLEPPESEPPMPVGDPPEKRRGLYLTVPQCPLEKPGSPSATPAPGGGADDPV
Summary of the method: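 State-dependent Cav3.2 inhibition compared in two buffers differing in potassium equilibrium potential (−92 vs −110 mV). Stable HEK293 line, Fluo-4 dye; compound 15 min, room temperature, dark, then KCl addition (83.8 or 91.8 mM) triggers calcium influx read 10 s; IC50 from peak increment over baseline.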

human Cav3.2 channels [2] = target: T1, human Cav3.2 channels; assay: Electrophysiological evaluation, whole-cell patch-clamp with automatic patch-clamp system; format: cell-based; conditions: for inhibition at 0.3 µM: holding potential −80 mV, read-out: Cav3.2 channel current inhibition ratio at 0.3 μM of test compound (holding potential −80 mV)
Protocol: Electrophysiological Evaluation
Stable cell line expressing human Cav3.2 channels, which had been produced by Test method (1) of Example 140, was seeded in a 10-cm dish using DMEM medium containing 10% FBS, and the cells were cultured for 24 hours or longer under the conditions of 37° C. and 5% CO2. The cells were detached using Accutase and were used after being suspended in ice-cold extracellular solution. The Cav3.2 channel current was measured by the Whole-cell patch-clamp method using an automatic patch-clamp system (Port-a-Patch; Nanion Technologies GmbH, EPC-10; HEKA Elektronik GmbH, Patchmaster; HEKA Elektronik GmbH) and buffers described below. Measurement of the Cav3.2 channel current was carried out at room temperature, and the measurement conditions were set as follows: holding potential: −80 mV, depolarization potential: −20 mV, depolarization time: 100 msec, and depolarization frequency: 10 sec. The Cav3.2 channel current was defined as the peak value of the inward current observed when depolarization occurred at −20 mV.
For a test compound, a DMSO solution was diluted 1,000 times with extracellular solution, and thus a solution having an intended concentration was produced. The test compound was applied using an extracellular perfusion system (Nanion Technologies GmbH) until the Cav3.2 channel current was stabilized, and five concentrations at the maximum from the low-concentration side were cumulatively applied. The inhibition ratio of the test compound was calculated from the current value immediately before the application of the test compound and the change rate of the Cav3.2 channel current after the application of the test compound (conditions for a holding potential of −80 mV: test compound concentration of 0.3 μM, conditions for a holding potential of −100 mV: test compound concentration of 3 μM).
Extracellular solution: 135 mM NaCl, 4 mM KCl, 1 mM MgCl2, 5 mM CaCl2, 5 mM D-Glucose, and 10 mM HEPES, pH 7.4
Internal solution for electrode: 10 mM NaCl, 10 mM HEPES, 50 mM CsCl, 60 mM CsF, and 20 mM EGTA, pH 7.2

[3] = Tables 2 to 6, buffer A, equilibrium potential of potassium −92 mV, read-out: Inhibitory action of buffer A (inactivated state)
[4] = Table 1, buffer A, equilibrium potential of potassium −92 mV, read-out: Inhibitory action of buffer A (inactivated state)
[5] = Table 1, buffer B, equilibrium potential of potassium −110 mV, read-out: Inhibitory action of buffer B (resting state or closed state)

Row | SMILES | IC50 (human Cav3.2 channels [1]; [3]) [nM] | inhibition at 0.3 µM (human Cav3.2 channels [2]) [%] | IC50 (human Cav3.2 channels [1]; [4]) [nM] | IC50 (human Cav3.2 channels [1]; [5]) [nM] | Cav3.2 channel current inhibition ratio at 3 μM of test compound (holding potential −100 mV) (human Cav3.2 channels [2]) [%]
1 | CC(NC(=O)[C@H]1C[C@@H]1c1nc2ccccc2[nH]1)c1nc2cc(F)ccc2s1 (stereo partly drawn) [Example 104, (1S,2S)-2-(1H-benzo[d]imidazol-2-yl)-N-(1-(5-fluorobenzo[d]thiazol-2-yl)ethyl)cyclopropane-1-carboxamide] | ≤ 100 | 52 | – | – | –
2 | Cc1nc(OCC(F)(F)F)sc1[C@@H](C)NC(=O)[C@H]1C[C@@H]1c1nc2ccccc2[nH]1 [Example 51, (1S,2S)-2-(1H-benzo[d]imidazol-2-yl)-N—((R)-1-(4-methyl-2-(2,2,2-trifluoroethoxy)thiazol-5-yl)ethyl)cyclopropane-1-carboxamide] | 100 to 1000 | 33 | – | – | –
3 | C[C@@H](NC(=O)C1CC1c1c[nH]c2ccccc12)c1cnc(OCC(F)(F)F)s1 (single isomer, unassigned) [Example 49] | ≤ 100 | 35 | – | – | –
4 | C[C@@H](NC(=O)[C@H]1C[C@@H]1c1nc2ccccc2[nH]1)c1cc2cc(F)cc(F)c2o1 [Example 88, (1S,2S)-2-(1H-benzo[d]imidazol-2-yl)-N—((R)-1-(5,7-difluorobenzofuran-2-yl)ethyl)cyclopropane-1-carboxamide] | ≤ 100 | 37 | – | – | –
5 | C[C@@H](NC(=O)[C@H]1C[C@@H]1c1nc2ccccc2[nH]1)c1cc2ccccc2o1 [Example 76, (1S,2S)-2-(1H-benzo[d]imidazol-2-yl)-N—((R)-1-(benzofuran-2-yl)ethyl)cyclopropane-1-carboxamide] | 100 to 1000 | 49 | – | – | –
6 | CCn1c([C@H]2C[C@@H]2C(=O)N[C@H](C)c2cc3cc(F)ccc3o2)nc2ccccc21 [Example 102, (1S,2S)-2-(1-ethyl-1H-benzo[d]imidazol-2-yl)-N—((R)-1-(5-fluorobenzofuran-2-yl)ethyl)cyclopropane-1-carboxamide] | ≤ 100 | 74 | – | – | –
7 | C[C@@H](NC(=O)[C@@H]1CCN(CC(=O)Nc2ccccc2)C1)c1ccc(OCC(F)(F)F)s1.Cl [Example 17, hydrochloride] | – | 64 | 100 to 1000 | 1000 to 10000 | –
8 | C[C@@H](NC(=O)C1CC1c1nc(-c2ccccn2)c[nH]1)c1ccc(OCC(F)(F)F)s1 (mixture of isomers) [Example 39, Trans-2-(4-(pyridin-2-yl)-1H-imidazol-2-yl)-N—((R)-1-(5-(2,2,2-trifluoroethoxy)thiophen-2-yl)ethyl)cyclopropane-1-carboxamide] | 100 to 1000 | 50 | – | – | –
9 | C[C@@H](NC(=O)[C@H]1C[C@@H]1c1nc2ccccc2[nH]1)c1ccc2ccccc2n1 [Example 52, (1S,2S)-2-(1H-benzo[d]imidazol-2-yl)-N—((R)-1-(quinolin-2-yl)ethyl)cyclopropane-1-carboxamide] | 100 to 1000 | 36 | – | – | –
10 | C[C@@H](NC(=O)[C@H]1C[C@@H]1c1nc2ccccc2[nH]1)c1cc2cc(Cl)ccc2o1 [Example 82, (1S,2S)-2-(1H-benzo[d]imidazol-2-yl)-N—((R)-1-(5-chlorobenzofuran-2-yl)ethyl)cyclopropane-1-carboxamide] | ≤ 100 | 88 | – | – | –
11 | C[C@@H](NC(=O)[C@H]1C[C@@H]1c1nc2ccccc2[nH]1)c1ccc2c(c1)CCO2 [Example 78, (1S,2S)-2-(1H-benzo[d]imidazol-2-yl)-N—((R)-1-(2,3-dihydrobenzofuran-5-yl)ethyl)cyclopropane-1-carboxamide] | 100 to 1000 | 49 | – | – | –
12 | Cc1c([C@@H](C)NC(=O)[C@H]2C[C@@H]2c2nc3ccccc3[nH]2)oc2ccc(F)cc12 [Example 101, (1S,2S)-2-(1H-benzo[d]imidazol-2-yl)-N—((R)-1-(5-fluoro-3-methylbenzofuran-2-yl)ethyl)cyclopropane-1-carboxamide] | ≤ 100 | 73 | – | – | –
13 | C[C@@H](NC(=O)[C@H]1C[C@@H]1c1nc2ccccc2[nH]1)c1cc2cc(F)ccc2s1 [Example 66, (1S,2S)-2-(1H-benzo[d]imidazol-2-yl)-N—((R)-1-(5-fluorobenzo[b]thiophen-2-yl)ethyl)cyclopropane-1-carboxamide] | ≤ 100 | 81 | – | – | –
14 | C[C@@H](NC(=O)[C@H]1C[C@@H]1c1nc2ccccc2[nH]1)c1cc2ccccn2n1 [Example 93, (1S,2S)-2-(1H-benzo[d]imidazol-2-yl)-N—((R)-1-(pyrazolo[1,5-a]pyridin-2-yl)ethyl)cyclopropane-1-carboxamide] | 1000 to 10000 | 22 | – | – | –
15 | C[C@@H](NC(=O)[C@H]1C[C@@H]1c1nc2ccccc2[nH]1)c1ccc(C(=O)N(C)c2ccc(F)cc2)s1 [Example 62, Trans-5-((1R)-1-(2-(1H-benzo[d]imidazol-2-yl)cyclopropane-1-carboxamido)ethyl)-N-(4-fluorophenyl)-N-methylthiophene-2-carboxamide] | 100 to 1000 | 34 | – | – | –
16 | C[C@@H](NC(=O)[C@H]1C[C@@H]1c1nc2ccccc2[nH]1)c1ccc2c(c1)OC(F)(F)O2 [Example 73, (1S,2S)-2-(1H-benzo[d]imidazol-2-yl)-N—((R)-1-(2,2-difluorobenzo[d][1,3]dioxol-5-yl)ethyl)cyclopropane-1-carboxamide] | 100 to 1000 | 50 | – | – | –
17 | CC(NC(=O)[C@H]1C[C@@H]1c1nc2ccccc2[nH]1)c1cc2cnccc2o1 (stereo partly drawn) [Example 99, (1S,2S)-2-(1H-benzo[d]imidazol-2-yl)-N-(1-(furo[3,2-c]pyridin-2-yl)ethyl)cyclopropane-1-carboxamide] | 1000 to 10000 | – | – | – | –
18 | CC(C)[C@@H](NC(=O)[C@H]1C[C@@H]1c1nc2ccccc2[nH]1)c1ccc(C(F)(F)F)s1 [Example 50, (1S,2S)-2-(1H-benzo[d]imidazol-2-yl)-N—((R)-2-methyl-1-(5-(trifluoromethyl)thiophen-2-yl)propyl)cyclopropane-1-carboxamide] | 100 to 1000 | 43 | – | – | –

Other lines, results leading:

Row | IC50 (human Cav3.2 channels [1]; [3]) [nM] | inhibition at 0.3 µM (human Cav3.2 channels [2]) [%] | IC50 (human Cav3.2 channels [1]; [4]) [nM] | IC50 (human Cav3.2 channels [1]; [5]) [nM] | Cav3.2 channel current inhibition ratio at 3 μM of test compound (holding potential −100 mV) (human Cav3.2 channels [2]) [%] | SMILES
19 | – | 1 | 100 to 1000 | > 10000 | 13 | C[C@@H](NC(=O)C1CC1c1nc2ccccc2[nH]1)c1cnc(OCC(F)(F)F)s1 (single isomer, unassigned) [Example 8A]
20 | 100 to 1000 | 59 | – | – | 54 | C[C@@H](NC(=O)[C@H]1C[C@@H]1c1nc2ccccc2[nH]1)c1ccc(C(=O)OC(C)(C)C)s1 [Example 25A, Trans-5-((1R)-1-(2-(1H-benzo[d]imidazol-2-yl)cyclopropane-1-carboxamido)ethyl)thiophene-2-carboxylic acid tert-butyl ester]
21 | 100 to 1000 | 58 | – | – | – | C[C@@H](NC(=O)C1CC1c1ccc2ccccc2n1)c1ccc(OCC(F)(F)F)s1 (single isomer, unassigned) [Example 34A]
22 | 100 to 1000 | 70 | – | – | – | C[C@@H](NC(=O)C1CC1c1ncc2ccccn12)c1cc2cc(F)ccc2o1 (single isomer, unassigned) [Example 117A]
23 | – | 17 | – | – | 14 | C[C@@H](NC(=O)C1CC1c1nc2ccccc2[nH]1)c1cnc(OCC(F)(F)F)cn1 (stereo partly shown) [RQ-00311651, reference compound]
24 | 100 to 1000 | – | – | – | – | C[C@@H](NC(=O)C1CC1C(=O)Nc1cccc(C(F)(F)F)c1)c1cc2cc(F)ccc2o1 (single isomer, unassigned) [Example 130B]
25 | 1000 to 10000 | – | – | – | – | Cc1ccc2nc(C3CC3C(=O)N[C@H](C)c3ccc(OCC(F)(F)F)s3)[nH]c2n1 (single isomer, unassigned) [Example 106A]
26 | 100 to 1000 | – | – | – | – | C[C@@H](NC(=O)C1CC1c1c[nH]c2ccccc12)c1cc2cc(F)ccc2o1 (single isomer, unassigned) [Example 98A]
